US5929039A, “Method for treating cardiac dysfunction and pharmaceutical compositions useful therefor” (Baker Medical Research Institute, priority 1993, dated 1999)
Like-named read-outs stand apart in the source and are kept apart here.

Assays:
[1] = tested on: in situ perfused rat hearts; settings: for Reperfusion-induced arrhythmias VF % incidence / Reperfusion-induced arrhythmias VT % incidence: control 83; for arrhythmias occurring during the ischaemic phase: at the higher concentrations
Description: (§1) A model of in situ perfused rat hearts subjected to 20 minutes coronary artery occlusion to induce ischaemia, followed by reperfusion was used to investigate reperfusion-induced arrhythmias.
(§2) Rats (250-300 g) were anaesthetised (pentobarbitone 60 mg/kg, I.P.) and heparinised (200 U/rat I.V.) The thorax was then opened and a metal cannula (ID 1 mm) inserted and tied into the ascending aorta, to commence Langendorff perfusion in situ (31). The interval from opening the chest to commencing heart perfusion was between 50 and 70 seconds. The perfusate was Krebs buffer, with coronary flow controlled by a Ismatac peristaltic pump at a rate of 5 ml/g heart weight/min for the non-ischaemic perfusion. At this flow rate the coronary perfusion pressure was between 32-38 mmHg, measured by pressure transducer (Gould Statham model p23) connected to the sidearm of the perfusion line. Following aortic cancellation, pulmonary vessels were tied off. In some preparations, ventricular pressure was measured by inserting a Millar micro-tip transducer catheter into the left ventricular cavity via the apex. All parameters--coronary perfusion pressure, ventricular pressure, and epicardial ECG, were constantly recorded on a Grass model 7 polygraph. Two hearts were perfused and simultaneously studied.
(§3) A silk suture (4.0) was positioned loosely around the left coronary artery 2-3 mm from its origin. Two silk releasing rings were placed around the suture for subsequent release of occlusion. Successful occlusion of the artery, inducing regional ischaemia, was indicated by increases in coronary perfusion pressure of at least 30%. Perfusion pressure was adjusted to non-ischaemic perfusion levels during the ischaemic period.
(§4) Drugs were added to the perfusion via a Harvard Model 22 pump. The drug flow was less than 1% of perfusion flow to ensure constant perfusate parameters. Unless mentioned otherwise, the drugs were present 10 minutes before, and during the entire ischaemic and reperfusion periods.
(§5) Heart preparations were allowed to stabilise for at least 20 minutes prior to commencing studies. Following 10 minute drug incubation, the left coronary artery was ligated to induce local ischaemia, for a period of 20 minutes. At the end of this ischaemic period, the ligature was released and hearts perfused at pre-ischaemic flow for a period of 5 minutes. Ventricular arrhythmias, occurring during ischaemia or during the first 2 minutes of reperfusion were defined according to the Lambeth Conventions (32).
Incidence of arrhythmias was analysed using a .chi.^2 test, with n≥8 for each group.

[2] = tested on: isolated neonatal cardiomyocytes; test: Inositol phosphate accumulation in isolated neonatal cardiomyocytes; format: cell-based
[3] = tested on: inositol phosphate accumulation in heart tissue; test: Inositol phosphate accumulation in healthy (normoxic) heart tissue; design: species or system rat
Description: (§6) Adult male sprague dawley rats 250-300 g were used. Where indicated, rats were treated with reserpine (5 mg/kg I.P. for 18 hrs prior to killing) to deplete endogenous noradrenaline stores.. Rats were heparinized 1 U/g I.P. 30 minutes prior to killing by decapitation. Hearts were rapidly excised and immediately chilled in ice-cold saline. Under ice-cold solution, hearts were cannulated via the ascending aorta as described by Langendorff and perfused retrogradely at a rate of 5 ml/min with HEPES-buffered Krebs solution equilibrated with 5%CO2 -95%O2 at 37° C. Initial perfusion was in a non-recirculating manner to remove internal blood. Hearts were allowed to warm up gradually and, when free of internal blood, transferred to a 37° C. water-jacketed organ bath containing carbogenated Krebs medium, and perfusion continued in a recirculating manner. Following a 15 minute equilibration period, hearts were labelled with [^3 H]-inositol, 2 μCi/ml for 2 h. Hearts were monitored throughout the labelling period for strong rhythmic beating.
(§7) Inositol phosphates were extracted from ventricle samples in 3.5 ml ice-cold 5% trichloroacetic acid (TCA), 2.5 mM EDTA, 5 mM phytate solution, as described previously (21). Briefly, ventricles were homogenised with two 10 second passes of a "Polytron" homogenizer separated by 15 second periods on ice. Samples were homogenised further using a Potter-Elvejheim homogeniser followed by brief sonication. Homogenised samples were centrifuged (5000 rpm, 10 min, 4° C.) to remove TCA insoluble material. Supernatants were collected, and the remaining pellet re-extracted in 1.5 ml TCA, EDTA, phytate. Supernatants were pooled and freon, tri-n-ocylamine (1:1 v/v 0.75 ml:1 ml TCA solution) was added, mixed thoroughly, and phases separated by low speed centrifugation (2000 rpm, 10 min 4° C.). The resultant aqueous phase, containing inositol phosphates was collected and treated with proteinase K (50 μg/ml, 2 hr, 50° C.). This process was necessary to preserve the chromatography column. Treated samples were passed through a 1 ml Dowex-50 column (4% cross-linked 4-400 mesh size) and eluted with 1 ml water (22). Urea (0.05 M final) was added (23) and samples lyophilized prior to high performance liquid chromatography (HPLC) analysis. Recovery of inositol phosphates using this method was greater than 95% for each isomer, as estimated by addition of [^3 H]-labelled standards to extractions of unlabelled hearts.
Inositol phosphates were separated by an anion-exchange HPLC system using a Whatman Partisil 10μ SAX column in a Waters Radial Compression Unit, employing a complex ammonium phosphate gradient, pH 3.8 from 0-2 M as described previously (24). Inositol phosphates were detected and quantitated using an on-line […] (model CR, Radiomatic Instruments) All peaks were identified by comparison with commercial standards. Nucleotide standards AMP, ADP, and ATP were run with samples to assess column performance.

PI-PLC heart rep = test: Inhibition of PI-PLC in hearts under reperfusion conditions; design: species or system rat
Description: as §6
(§8) Following labelling, the [^3 H]-inositol-containing medium was removed, and replaced with Krebs medium containing propranolol (10^-6 M) and lithium chloride (50 mM) to block β-adrenergic receptors and to inhibit InsP metabolism by InsP 1'-phosphatase respectively (20). Hearts were perfused with propranolol, LiCi solution for 10 minutes prior to ischaemia. Antagonists, when administered, were included in this 10 minute preincubation. Normothermic global ischaemia was induced by terminating perfusion for various times up to 30 minutes. Reperfusion was examined following a 20 minute ischaemic period by resuming perfusion at 5 ml/min. Reactions were terminated by freezing hearts in liquid N2 following excision at the atrioventricular junction. Frozen ventricles were weighed and inositol phosphates extracted as described below.
Mass of Ins(1,4,5)P3 was measured using a competitive binding assay (Amersham TRK 1000) essentially as described previously (26). […]

PC-PLD brain = settings: read-out: average EC50 PC-PLD brain; from the literature (35); cited from earlier work
PI-PLC kidney me = settings: membrane enzyme; from the literature (35); cited from earlier work
Ins(1,4,5)P3 release [4] = test: Ins(1,4,5)P3 mass in isolated perfused rat hearts, 2 min reperfusion after 20 min global ischaemia (competitive binding assay); settings: for Ins(1,4,5)P3 mass: 2 min reperfusion after 20 min global ischaemia, control 200 ± 18
Description: as §6, §8, §7
Mass of Ins(1,4,5)P3 was measured using a competitive binding assay (Amersham TRK 1000) essentially as described previously (26). Ventricle samples were prepared as described above except for the omission of [^3 H]-label during the 2 hr perfusion of hearts prior to ischaemia, and for the use of 5 mm ATP instead of phytate in the extraction procedure.
Protein concentration was determined in aliquots of TCA pellet following InsP extraction using a modified Lowry method with Bovine Serum Albumin as a standard.
Values presented are mean ±SEM, for n=4 unless otherwise stated. Statistical analysis of results involved Students' unpaired "t-test" for all InsP data.

PI-PLC kidney cy = settings: cytosolic enzyme; from the literature (35); cited from earlier work
rats = tested on: rats
Description: Rats were not heparinised so that effects of thrombin will be contributory to observed arrhythmias.
Rats were anaesthetised with pentobarbitone (60 mg/Kg IP) and artificially ventilated with room air. The chests were opened via the forth intercostal space, and the heart exposed. A 4.0 suture was placed around the left coronary artery and then passed through a guided polyethylene cannula. The thorax was closed leaving the threaded cannula outside the chest. The right carotid artery was cannulated for recording of arterial blood pressure. After stabilisation for 20-30 minutes, the left coronary artery was ligated by pulling the ends of the ligature through the tube and securing them by clamping the tube together with the threads. The ischaemic period was 10 minutes followed by reperfusion. Arterial blood pressure and a lead II ECG was recorded 3 minutes before and during ischaemia, and for the first 5 minutes of reperfusion. […] The size of the ischaemic area was determined at the end of the experiment by the dye method. […] Gentamicin was infused at a dose of 2.5-10 mg/Kg/min prior to initiation of ischaemia and maintained throughout the protocol.

Ins(1,4,5)P3 release [5] = test: Thrombin-stimulated release of Ins(1,4,5)P3 in heart tissue; settings: at concentrations similar to those inhibiting the noradrenaline response under reperfusion
[6] = tested on: hearts from reserpinized rats; test: Arrhythmic effect of thrombin under reperfusion conditions, perfused hearts from reserpinized rats; design: species or system rat; settings: reserpinized hearts
Description: as §1, §2, §3, §4, §5
The finding that thrombin directly stimulated release of Ins(1,4,5)P3 in heart indicates the possibility that thrombin might cause arrhythmias directly via this mechanism. Experiments were performed using hearts from reserpinized rats so that arrhythmic events initiated by noradrenaline were eliminated. Reperfusion arrhythmias were not observed in hearts from reserpinized animals. […] Furthermore, these arrhythmias were inhibited by gentamicin, indicating a relationship to release of Ins(1,4,5)P3 (Table 2).

| Compound | effect on reperfusion arrhythmias [1] | Reperfusion-induced arrhythmias VF % incidence ([1]; 0.015 mM) | Reperfusion-induced arrhythmias VT % incidence ([1]; 0.015 mM) | Reperfusion-induced arrhythmias VF % incidence ([1]; 0.15 mM) | Reperfusion-induced arrhythmias VT % incidence ([1]; 0.15 mM) | Reperfusion-induced arrhythmias VF % incidence ([1]; 1.5 mM) | Reperfusion-induced arrhythmias VT % incidence ([1]; 1.5 mM) | arrhythmias occurring during the ischaemic phase [1] | EC50 (PI-PLC heart rep) | EC50 (PI-PLC kidney me) | potency of inhibition of reperfusion-induced Ins(1,4,5)P3 release relative to neomycin (Ins(1,4,5)P3 release [4]) | Ins(1,4,5)P3 mass (Ins(1,4,5)P3 release [4]; 0.015 mM) | Ins(1,4,5)P3 mass (Ins(1,4,5)P3 release [4]; 0.15 mM) | Ins(1,4,5)P3 mass (Ins(1,4,5)P3 release [4]; 1.5 mM) | EC50 (PI-PLC kidney cy) | other results |
| --- | --- | --- | --- | --- | --- | --- | --- | --- | --- | --- | --- | --- | --- | --- | --- | --- |
| COc1ccc2c(c1)CC[C@@H]1[C@@H]2CC[C@]2(C)[C@@H](NCCCCCCN3C(=O)C=CC3=O)CC[C@@H]12 [U-73122] | – | – | – | – | – | – | – | – | – | – | – | – | – | – | – | anti-arrhythmic activity [1]: without anti-arrhythmic activity; VF% ([1]; 10^-6 M, n 12, control 63): 61%; VT% ([1]; 10^-6 M, n 12, control 100): 88%; inhibition of accumulation of inositol phosphates [2]: fully effective inhibitor; release of Ins(1,4,5)P3 in intact heart preparations [3]: did not inhibit; inhibition of accumulation of inositol phosphates ([3]; heart tissue under noradrenaline stimulation): did not inhibit |
| [H]/N=C(/N)N[C@H]1[C@H](O)[C@@H](O)[C@H](O[C@@H]2O[C@@H](C)[C@](O)(C=O)[C@H]2O[C@@H]2O[C@@H](CO)[C@H](O)[C@@H](O)[C@@H]2NC)[C@@H](N/C(N)=N\[H])[C@@H]1O [streptomycin] | inhibited | 27% | 45% | 6% | 25% | 27% | 45% | partial inhibition | 150 µM | 2850 µM | more potent inhibitors | 201 ± 16 pmol/mg protein | 167 ± 5 pmol/mg protein | 94 ± 11 pmol/mg protein | 380 µM | EC50 (PC-PLD brain): 125 µM |
| gentamicin | inhibited | 25% | 58% | 27% | 27% | 8% | 17% | partial inhibition | 15 µM | 500 µM | more potent inhibitors | 145 ± 2 pmol/mg protein | 136 ± 22 pmol/mg protein | 102 ± 17 pmol/mg protein | 130 µM | rank of potency against reperfusion arrhythmias [1]: most potent agent tested; size of ischaemic area vs control animals (rats; dye method, 2.5-10 mg/Kg/min): no difference; arrhythmias occurring under ischaemic conditions in vivo (rats; infused 2.5-10 mg/Kg/min): effective; development of reperfusion arrhythmias in vivo (rats; infused 2.5-10 mg/Kg/min): inhibited; VF% reperfusion arrhythmias in vivo (rats; infused 2.5-10 mg/Kg/min, 10 min occlusion then reperfusion, n 10, control 68): 0%; VT% reperfusion arrhythmias in vivo (rats; infused 2.5-10 mg/Kg/min, 10 min occlusion then reperfusion, n 10, control 100): 30%; inhibition of thrombin-stimulated release of Ins(1,4,5)P3 (Ins(1,4,5)P3 release [5]): inhibited; thrombin-induced reperfusion arrhythmias [6]: inhibited |
